Data: ChEMBL document CHEMBL2424610, “Design, synthesis, and evaluation of 4-(substituted)phenyl-2-thioxo-3,4-dihydro-1H-chromino[4,3-d]pyrimidin-5-one and 4-(substituted)phenyl-3,4-dihydro-1H-chromino[4,3-d]pyrimidine-2,5-dione analogs as antitubercular agents” (Med Chem Res, 2013)

Experiments:
Vero = test: Cytotoxicity against african green monkey Vero cells; assay type: cell-based; settings: Chlorocebus sabaeus
[1] = system: Mycobacterium tuberculosis; test: Antitubercular activity against Mycobacterium tuberculosis H37Rv ATCC 27294 assessed as growth inhibition at 128 uM by luminescence-based low oxygen-recovery assay; assay type: functional; settings: read-out: GI
[2] = system: Mycobacterium tuberculosis; test: Antitubercular activity against Mycobacterium tuberculosis H37Rv ATCC 27294 assessed as growth inhibition at 128 uM after 4 days by microplate Alamar blue assay; assay type: functional; settings: H37Rv ATCC 27294, 96 h, read-out: GI

In the case of O=c1oc2ccccc2c2c1C(c1ccccc1)NC(=S)N2 (stereo not drawn), the IC50 (Vero) is reported as > 128 µM, the inhibition of growth at 128 µM [1] is reported as 20% and the inhibition of growth at 128 µM [2] is reported as 10%.

COc1ccc(C2NC(=S)Nc3c2c(=O)oc2ccc(C)cc32)cc1 (stereo not drawn) was tested, and the IC50 (Vero) was > 128 µM, the inhibition of growth at 128 µM [1] was 1% and the inhibition of growth at 128 µM [2] was 0%.

In the case of COc1ccc(C2NC(=S)Nc3c2c(=O)oc2ccccc32)cc1 (stereo not drawn), the IC50 (Vero) is reported as > 128 µM, the inhibition of growth at 128 µM [1] is reported as 0% and the inhibition of growth at 128 µM [2] is reported as 0%.

For COc1ccc(C2NC(=O)Nc3c2c(=O)oc2ccc(C)cc32)cc1OC (stereo not drawn), the IC50 (Vero) was > 128 µM, the inhibition of growth at 128 µM [1] was 35% and the inhibition of growth at 128 µM [2] was 55%.

COc1ccc(C2NC(=S)Nc3c2c(=O)oc2ccc(C)cc32)cc1OC (stereo not drawn) was tested, and the IC50 (Vero) was > 128 µM, the inhibition of growth at 128 µM [1] was 14% and the inhibition of growth at 128 µM [2] was 9%.

In the case of COc1ccc(C2NC(=S)Nc3c2c(=O)oc2ccccc32)cc1OC (stereo not drawn), the IC50 (Vero) is reported as > 128 µM, the inhibition of growth at 128 µM [1] is reported as 0% and the inhibition of growth at 128 µM [2] is reported as 0%.

COc1cc(C2NC(=O)Nc3c2c(=O)oc2ccccc32)ccc1O (stereo not drawn) was tested, and the IC50 (Vero) was > 128 µM, the inhibition of growth at 128 µM [1] was 1% and the inhibition of growth at 128 µM [2] was 37%.

In the case of COc1ccc(C2NC(=O)Nc3c2c(=O)oc2ccccc32)cc1OC (stereo not drawn), the IC50 (Vero) is reported as > 128 µM, the inhibition of growth at 128 µM [1] is reported as 0% and the inhibition of growth at 128 µM [2] is reported as 0%.

COc1ccc(C2NC(=O)Nc3c2c(=O)oc2ccccc32)cc1 (stereo not drawn) showed an IC50 (Vero) of 119 µM, an inhibition of growth at 128 µM [1] of 4% and an inhibition of growth at 128 µM [2] of 8%.

For COc1cc(C2NC(=S)Nc3c2c(=O)oc2ccccc32)ccc1O (stereo not drawn), the IC50 (Vero) was > 128 µM, the inhibition of growth at 128 µM [1] was 0% and the inhibition of growth at 128 µM [2] was 0%.

For Cc1ccc2oc(=O)c3c(c2c1)NC(=S)NC3c1cccc(Br)c1 (stereo not drawn), the IC50 (Vero) was 47.6 µM, the inhibition of growth at 128 µM [1] was 61% and the inhibition of growth at 128 µM [2] was 32%.

O=C1Nc2c(c(=O)oc3ccccc23)C(c2cccc(Br)c2)N1 (stereo not drawn) showed an IC50 (Vero) of 106 µM, an inhibition of growth at 128 µM [1] of 15% and an inhibition of growth at 128 µM [2] of 7%.

Compound COc1ccc(C2NC(=O)Nc3c2c(=O)oc2ccc(C)cc32)cc1 (stereo not drawn) has an IC50 (Vero) of 101 µM, an inhibition of growth at 128 µM [1] of 62% and an inhibition of growth at 128 µM [2] of 58%.

O=C1Nc2c(c(=O)oc3ccccc23)C(c2ccccc2O)N1 (stereo not drawn) showed an IC50 (Vero) of 122 µM, an inhibition of growth at 128 µM [1] of 37% and an inhibition of growth at 128 µM [2] of 45%.

Work on O=C1Nc2c(c(=O)oc3ccccc23)C(c2ccccc2)N1 (stereo not drawn) yielded an IC50 (Vero) of 84.7 µM, an inhibition of growth at 128 µM [1] of 17% and an inhibition of growth at 128 µM [2] of 0%.

O=c1oc2ccccc2c2c1C(c1cccc(Br)c1)NC(=S)N2 (stereo not drawn) gave an IC50 (Vero) of 47.4 µM, an inhibition of growth at 128 µM [1] of 59% and an inhibition of growth at 128 µM [2] of 12%.
